Tests used:
[1] = test system: HeLa cells; assay: High content imaging of stained HeLa cells with valinomycin treatment; format: cell-based; conditions: for killing of HeLa cells: 24 hours
Method: HeLa cells were either untreated or treated with two concentrations (15 μM and 120 μM) of valinomycin (VLM) as a killing agent for 24 hours before labeling with Compound 7 and with the nuclear counterstain Hoechst 33342 dye (Invitrogen Corporation, Carlsbad, Calif.). At 24 hours of treatment, normal cell growth medium containing 2× final concentration of Hoechst 33342 and Compound 7 was added to the existing medium to result in 1× final concentration. Cells were incubated for 30 minutes at 37° C. and then the drug/dye mixture was replaced with PBS for imaging using a high content automated imaging system (ArrayScan VTI from Thermo/Fisher) using a Texas Red filter set.

[2] = test system: fixed cells; conditions: cited from earlier work
[3] = test system: dead cells; conditions: dead cell identification; cited from earlier work
[4] = test system: Jurkat T cells; assay: Imaging flow cytometry of stained Jurkat cells with camptothecin treatment; format: cell-based; conditions: 1 μM camptothecin, 4 hours
Method: Jurkat T cells were incubated in the presence or absence of 1 μM camptothecin (CPT) for 4 hours to induce apoptosis, then stained with 2.5 μM Compound 7 for 15 minutes at room temperature and analyzed on an AMNIS ImageStream multispectral imaging flow cytometer. Gating on 10,000 collected events with intermediate brightfield (BF) area and high BF aspect ratio (width:height) was performed to distinguish single cells from debris and multi-cellular clumps. Cells with nuclear dye uptake were gated (R3) on the Intensity 180 plot. Cells untreated with camptothecin are shown in the top middle histogram of FIG. 3, with 8.0% stain positive (dead cells) as identified in the R3 gate. The positively stained cells show typical brightfield morphology of dead cells, while the cells negative (live cells) show typical brightfield morphology of live cells.
Cells treated with the apoptotic inducing agent camptothecin (FIG. 3B) (bottom middle histogram), with 68.4% stain positive as identified in the R3 gate. The positively stained cells show typical brightfield morphology of dead cells and stained nuclei typical of apoptosis and cell death that is condensed and fragmented, while the cells negative for staining (live cells) show typical brightfield morphology of live cells. […] Cells negative for stain show morphology typical of healthy cells.

CCOc1ccc(-c2nc3ccc(-c4nc5ccc(N6CCN(C)CC6)cc5[nH]4)cc3[nH]2)cc1 [Hoechst 33342]
nuclear counterstain labeling of HeLa cells ([1]; untreated or valinomycin-treated cells): labeling both live and dead cells

Cc1c2oc3c(C)c(N)cc(C(=O)N[C@@H]4C(=O)N[C@H](C(C)C)C(=O)N5CCC[C@H]5C(=O)N(C)CC(=O)N(C)[C@@H](C(C)C)C(=O)O[C@@H]4C)c3nc-2c(C(=O)N[C@@H]2C(=O)N[C@H](C(C)C)C(=O)N3CCC[C@H]3C(=O)N(C)CC(=O)N(C)[C@@H](C(C)C)C(=O)O[C@@H]2C)c(N)c1=O [Compound 7-AAD, 7-aminoactinomycin D]
variability of DNA content cell cycle histogram (% CV of the G0G1 peak) [2]: high degree of variability
time of staining process to fully equilibrate [3]: about 30 minutes

CC[C@@]1(O)C(=O)OCc2c1cc1n(c2=O)Cc2cc3ccccc3nc2-1 [camptothecin]
cell death measurable by staining with Compound 7 [4]: induced significant cell death

CC(C)[C@@H]1NC(=O)[C@H](C)OC(=O)[C@@H](C(C)C)NC(=O)[C@@H](C(C)C)OC(=O)[C@H](C(C)C)NC(=O)[C@H](C)OC(=O)[C@@H](C(C)C)NC(=O)[C@@H](C(C)C)OC(=O)[C@H](C(C)C)NC(=O)[C@H](C)OC(=O)[C@@H](C(C)C)NC(=O)[C@@H](C(C)C)OC1=O [valinomycin]
killing of HeLa cells ([1]; 15 μM valinomycin): less effective in killing HeLa cells
killing of HeLa cells ([1]; 120 μM valinomycin): effective in killing HeLa cell
